The text below walks through data of patent US9597407B2, “Targeted antimicrobial moieties” (C3 Jian, Inc., priority 2009, dated 2017).

Entries after “also recorded” stand apart in the source; their conditions may differ. Ends that are not written are not given here.

One assay has as its system bacteria. Description: Binding of targeting peptides to microorganisms (Table 3). The conditions noted are these: preferably 1x PBS.
A further assay relates to microorganisms. Put plainly: Morphology, biofilm and growth disruption by peptides (Table 5). It is filed as cell-based. Also noted: key: A: Peptide aggregates; B: Less hyphal formation; Clumps; Diffuse clumps and small polyps; F: Diffuse growth; H: Thin; I: Growth inhibition; Microcolony formation; Rippled; Small polyps; Thick; W: Halo formation on top, microlonies on bottom. The text has this: In certain embodiments peptides that induce alterations in phenotype or other biological activities can also be used as antimicrobial effector moieties.

The mark [1] stands for this setting: peptide binding in aqueous buffers that varied depending on peptide solubility.
[2] abbreviates: microorganism bound by the targeting peptide, binding in aqueous buffers chosen by peptide solubility.
Where [3] appears, read: microorganism the targeting peptide binds, binding in aqueous buffers that varied with peptide solubility.

On to LSEMERRRLRKRA-NH2 [PF-529], for which, in the assay on bacteria (setting [1]), the “Target(s) (microorganisms bound by the targeting peptide)” value is “S. epidermidis and E. coli and C. albicans and MRSA and S. pneumoniae and E. faecalis and C. jeikeium”. In the assay with microorganisms (S. pneumoniae), the “Organism, effect (morphology, biofilm and growth disruption)” value is on record as “S. pneumoniae (H)”.

LSLATFAKIFMTRSNWSLKRFNRL [PF-278]: the “Target(s)” value in the assay on bacteria (setting [2]) is reported as “M. luteus; also recorded: A. baumannii”. The “Organism, effect” value in the assay on microorganisms (C. albicans) is given as “C. albicans (B)”; in the assay with microorganisms (M. luteus), “M. luteus (R)”; in the assay on microorganisms (S. epidermidis) it was “S. epidermidis (I)”.

On to LSPRPIIVSRRSRADNNNDWSR [PF-143], for which, in the assay on bacteria (setting [2]), the “Target(s)” value was “S. epidermidis and MRSA and C. jeikeium”. For the same substance, the “Organism, effect” value with microorganisms (P. aeruginosa) is “P. aeruginosa (C)”.

For MGIIAGIIKFIKGLIEKFTGK [PF-006], the “Target(s)” value in the assay on bacteria (setting [3]) is “S. epidermidis and M. luteus and E. coli and P. aeruginosa and MRSA and E. faecalis and C. jeikeium and C. jejuni”. Moreover, the “Organism, effect” value is reported as “B. subtilis (I)” with microorganisms (B. subtilis); “C. jejuni (D)” in the assay with microorganisms (C. jejuni); “M. luteus (A)” with microorganisms (M. luteus); “MRSA (I)” with microorganisms (MRSA); “S. epidermidis (D)” with microorganisms (S. epidermidis); “S. pneumoniae (R)” in the assay with microorganisms (S. pneumoniae).

MIRIRSPTKKKLNRNSISDWKSNTSGRFFY [PF-283]: the “Target(s)” value in the assay on bacteria (setting [2]) is recorded as “B. subtilis; also recorded: B. fragilis; also recorded: C. difficile”. In addition, the “Organism, effect” value with microorganisms (B. subtilis) was “B. subtilis (H)”; in the assay on microorganisms (S. epidermidis), “S. epidermidis (H)”.

Consider “MKRRRCNWCGKLFYLEEKSKEAYCCKECRKKAKKVKK [PF-307]”, for which, in the assay on bacteria (setting [2]), the “Target(s)” value is listed as “S. epidermidis; also recorded: B. subtilis; also recorded: B. fragilis; also recorded: C. difficile”. In addition, the “Organism, effect” value in the assay on microorganisms (B. subtilis) is “B. subtilis (H)”; in the assay with microorganisms (C. albicans), “C. albicans (B)”; with microorganisms (S. epidermidis), “S. epidermidis (T)”.

For the substance MQIFYIKTKIFLSFFLFLLIFSQCFYKIEE [PF-442], the “Target(s) (microorganisms bound by the targeting peptide)” value in the assay with bacteria (setting [1]) is listed as “S. epidermidis; also recorded: E. coli; also recorded: C. albicans; also recorded: S. pneumoniae; also recorded: E. faecalis”. Further, the “Organism, effect (morphology, biofilm and growth disruption)” value with microorganisms (MRSA) is reported as “MRSA (M)”; in the assay on microorganisms (S. pneumoniae) it was “S. pneumoniae (C)”.

On to “NTNDLLQAFELMGLGMAGVFIVLGILYIVAELLIKIFPVNN [PF-C194]”, for which the “Target(s) (microorganism bound by the targeting peptide)” value in the assay with bacteria (setting [1]) is “A. naeslundii; also recorded: F. nucleatum; also recorded: P. gingivalis; also recorded: S. mutans; also recorded: T. denticola”. Further, the “Organism, effect (morphology, biofilm and growth disruption)” value with microorganisms (F. nucleatum) is “F. nucleatum (T)”; in the assay with microorganisms (P. gingivalis) it was “P. gingivalis (T)”; with microorganisms (S. mutans) it was “S. mutans (F)”.

With NYAVVSHT [PF-209], the “Target(s)” value with bacteria (setting [2]) is recorded as “C. albicans; also recorded: C. jeikeium; also recorded: C. jejuni”. In addition, the “Organism, effect” value in the assay on microorganisms (MRSA) is “MRSA (I)”; with microorganisms (P. aeruginosa) it was “P. aeruginosa (H)”; in the assay with microorganisms (S. epidermidis) it was “S. epidermidis (C)”.

With PDAPRTCYHKPILAALSRIVVTDR [PF-524], in the assay with bacteria (setting [1]), the “Target(s) (microorganisms bound by the targeting peptide)” value was “S. epidermidis and E. coli and P. aeruginosa and C. albicans and MRSA and S. pneumoniae and E. faecalis and C. jeikeium”. The “Organism, effect (morphology, biofilm and growth disruption)” value in the assay on microorganisms (E. coli) is “E. coli (M)”; in the assay with microorganisms (E. faecalis), “E. faecalis (C)”; with microorganisms (MRSA), “MRSA (C)”; in the assay on microorganisms (S. pneumoniae), “S. pneumoniae (M)”.

Regarding “PF-002 (chain 1 NDDAQ; chain 2 NDDAQ; Peptide with targeting and/or antimicrobial activity)”, the “Target(s)” value with bacteria (setting [3]) is given as “S. epidermidis; also recorded: P. mirabilis; also recorded: C. albicans; also recorded: C. jeikeium; also recorded: C. jejuni”. Also, the “Organism, effect” value is reported as “B. subtilis (R)” in the assay with microorganisms (B. subtilis) and “S. pneumoniae (H)” with microorganisms (S. pneumoniae).

“PF-003 (chain 1 MNNWIKVAQISVTVINEVIDIMKEKQNGGK; chain 2 MNNWIKVAQISVTVINEVIDIMKEKQNGGK; Peptide with targeting and/or antimicrobial activity)”: in the assay with bacteria (setting [3]), the “Target(s)” value was “S. epidermidis and M. luteus and P. mirabilis and C. albicans and MRSA and C. jeikeium”. Moreover, the “Organism, effect” value in the assay with microorganisms (C. jeikeium) was “C. jeikeium (A)”; in the assay on microorganisms (M. luteus), “M. luteus (A)”; with microorganisms (MRSA) it was “MRSA (R)”; in the assay on microorganisms (S. epidermidis), “S. epidermidis (D)”.

With “PF-008 (chain 1 MIEIGSIAYLNGGSKKYNHILNQENR; chain 2 MIEIGSIAYLNGGSKKYNHILNQENR; Peptide with targeting and/or antimicrobial activity)”, in the assay with bacteria (setting [3]), the “Target(s)” value is “S. epidermidis and M. luteus and MRSA and C. jejuni”. Further, the “Organism, effect” value in the assay on microorganisms (B. subtilis) is reported as “B. subtilis (D)”; in the assay on microorganisms (C. jejuni), “C. jejuni (R)”.

In the case of “PF-009 (chain 1 SKKYNHILNQENR; chain 2 SKKYNHILNQENR; Peptide with targeting and/or antimicrobial activity)”, the “Target(s)” value in the assay on bacteria (setting [3]) is on record as “M. luteus; also recorded: P. mirabilis; also recorded: C. albicans”. Also, in the assay on microorganisms (S. epidermidis), the “Organism, effect” value was “S. epidermidis (S)”.

Consider “PF-010 (chain 1 MDIDVNKLLQAFVYFKSFEKLRHNNS; chain 2 MDIDVNKLLQAFVYFKSFEKLRHNNS; Peptide with targeting and/or antimicrobial activity)”, for which the “Target(s)” value in the assay with bacteria (setting [3]) is listed as “S. epidermidis; also recorded: M. luteus; also recorded: E. coli; also recorded: C. albicans”. For the same substance, the “Organism, effect” value with microorganisms (C. jeikeium) is “C. jeikeium (A)”; in the assay with microorganisms (M. luteus) it was “M. luteus (A)”; in the assay on microorganisms (MRSA) it was “MRSA (R)”; in the assay on microorganisms (S. epidermidis) it was “S. epidermidis (S)”.

Turning to “PF-065 (LEKNTRDNYFIHAIDRIYINTSKGLFPESELVAWG; Peptide with targeting and/or antimicrobial activity)”, in the assay with bacteria (setting [3]), the “Target(s)” value is “M. luteus and E. coli and P. aeruginosa and C. albicans and MRSA and S. pneumoniae and C. jeikeium and C. jejuni”. In addition, the “Organism, effect” value with microorganisms (C. jeikeium) was “C. jeikeium (A)”; in the assay on microorganisms (MRSA) it was “MRSA (R)”; with microorganisms (S. epidermidis), “S. epidermidis (D)”.

Regarding “PF-069 (FDPVPLKKDKSASKHSHKHNH; Peptide with targeting and/or antimicrobial activity)”, the “Target(s)” value with bacteria (setting [3]) is reported as “E. faecalis; also recorded: C. jejuni”. In addition, the entries for the “Organism, effect” value with microorganisms (B. subtilis) and in the assay with microorganisms (C. jejuni) were “B. subtilis (D)” and “C. jejuni (R)”, respectively.

With “PF-070 (SMVKSEIVDLLNGEDNDD; Peptide with targeting and/or antimicrobial activity)”, the “Target(s)” value in the assay with bacteria (setting [3]) is “S. epidermidis; also recorded: C. jejuni”. Besides, the “Organism, effect” value in the assay on microorganisms (B. subtilis) is reported as “B. subtilis (D)”.

Turning to “PF-074 (RDIHPIYFMTKD; Peptide with targeting and/or antimicrobial activity)”, in the assay with bacteria (setting [2]), the “Target(s)” value is “S. epidermidis and M. luteus and MRSA”. Besides, the “Organism, effect” value was “MRSA (M)” with microorganisms (MRSA) and “S. epidermidis (D)” in the assay on microorganisms (S. epidermidis).

Consider “PF-099 (EIIAYLEGRFANA; Peptide with targeting and/or antimicrobial activity)”, for which the “Target(s)” value in the assay on bacteria (setting [2]) is recorded as “S. epidermidis; also recorded: M. luteus; also recorded: E. coli; also recorded: C. jeikeium”. Further, the “Organism, effect” value in the assay with microorganisms (C. jeikeium) is listed as “C. jeikeium (C)”; with microorganisms (S. epidermidis), “S. epidermidis (D)”.

As for “PF-123 (TTRPQVAEDRQLDDALKETFPASDPISP; Peptide with targeting and/or antimicrobial activity)”, the “Target(s)” value with bacteria (setting [2]) is “M. luteus; also recorded: E. coli”. In the assay on microorganisms (S. epidermidis), the “Organism, effect” value is listed as “S. epidermidis (M)”.

As to “PF-128 (GIKVVAARFEEIQFSENFDSIILA; Peptide with targeting and/or antimicrobial activity)”, in the assay on bacteria (setting [2]), the “Target(s)” value is given as “M. luteus; also recorded: P. aeruginosa; also recorded: E. faecalis”. Moreover, the “Organism, effect” value is recorded as “P. aeruginosa (C)” in the assay with microorganisms (P. aeruginosa) and “S. epidermidis (D)” with microorganisms (S. epidermidis).

As for “PF-129 (MKLLARDPWVCAWNDIW; Peptide with targeting and/or antimicrobial activity)”, in the assay with bacteria (setting [2]), the “Target(s)” value was “S. epidermidis and MRSA and E. faecalis and C. jeikeium and C. jejuni”. Moreover, the figures for the “Organism, effect” value in the assay on microorganisms (C. jeikeium) and in the assay on microorganisms (S. epidermidis) were “C. jeikeium (R)” and “S. epidermidis (M)”, respectively.

In the case of “PF-133 (GDPTAGQKPVECP; Peptide with targeting and/or antimicrobial activity)”, the “Target(s)” value with bacteria (setting [2]) was “S. epidermidis; also recorded: C. jeikeium; also recorded: C. jejuni; also recorded: M. smegmatis”. The “Organism, effect” value with microorganisms (C. jeikeium) was “C. jeikeium (R)”.

As for “PF-135 (PPARPARIPQTPTLHGASLFRQRS; Peptide with targeting and/or antimicrobial activity)”, the “Target(s)” value in the assay on bacteria (setting [2]) is “S. epidermidis and M. luteus and E. coli and P. aeruginosa and MRSA and C. jeikeium and M. smegmatis”. Also, the “Organism, effect” value in the assay on microorganisms (C. jeikeium) was “C. jeikeium (R)”.

Take “PF-144 (RSGQPVGRPSRRAWLR; Peptide with targeting and/or antimicrobial activity)”: the “Target(s)” value with bacteria (setting [2]) is “S. epidermidis and M. luteus and E. coli and C. albicans and MRSA and S. pneumoniae and E. faecalis and C. jeikeium”. Also, the “Organism, effect” value in the assay on microorganisms (S. pneumoniae) is listed as “S. pneumoniae (H)”.

Take “PF-149 (GKVSVLTRVPRSLGGAPANQ; Peptide with targeting and/or antimicrobial activity)”: the “Target(s)” value in the assay with bacteria (setting [2]) is “S. epidermidis and M. luteus and E. coli and MRSA and C. jeikeium”. The “Organism, effect” value in the assay on microorganisms (MRSA) is given as “MRSA (H)”.

On to “PF-153 (GILARADCSQIA; Peptide with targeting and/or antimicrobial activity)”, for which the “Target(s)” value in the assay with bacteria (setting [2]) was “M. luteus and P. mirabilis and E. coli and MRSA”. Moreover, the “Organism, effect” value with microorganisms (C. jeikeium) is “C. jeikeium (C)”; in the assay on microorganisms (S. epidermidis) it was “S. epidermidis (M)”.
